# Experiments:
# [1] = tested on: nondependent, recreational users of CNS depressants; assay: Abuse potential study, dose selection phase: TEAEs; format: in vivo, human
# Procedure: After a screening period of up to 21 days, eligible participants were randomized 3:1 to receive single escalating doses of Compound (1) (60, 80, or 90 mg) or matching placebo in 3 separate cohorts; Compound (1) was administered during 4 days of inpatient administration (FIG. 30A). Sentinel dosing was employed for each cohort, with one participant randomized to receive Compound (1) and one to receive placebo on Day 1. The remaining 6 participants (Compound (1), 5; placebo, 1) were dosed approximately 24 hours later after monitoring the safety and tolerability endpoints. Dose-escalation cohorts were separated by at least 7 days. If a dose was not well tolerated based on the safety data, doses in subsequent cohorts were to be modified, and Compound (1) dose was not allowed to exceed 90 mg. Participants underwent a 1-day, follow-up visit 7 (±2) days after the end of the treatment and were not permitted to participate in the main study.
# For the first part, dose selection, endpoints included the observer-rated Modified Observer's Assessment of Alertness/Sedation (MOAA/S) scores along with safety and tolerability endpoints which included the Columbia-Suicide Severity Rating Scale (C-SSRS), frequency and severity of adverse events (AE) and serious adverse events (SAEs), and changes from baseline in clinical laboratory assessments, vital signs, and electrocardiogram (ECG).
# The dose selection safety set included all participants who received 1 dose of Compound (1). The main study qualification safety set included all participants who received ≥1 dose of alprazolam. For the treatment phase, the randomized set included all participants who were randomized and the safety set included all participants who received ≥1 dose of Compound (1) or alprazolam. The completer set included all participants in the randomized set who completed all treatment periods, had sufficient data for evaluation of the primary endpoint, and had ≥1 observation within 2 hours of Tmax for each treatment for Drug Liking VAS scores. […] The PK set included all participants in the treatment phase who received 1 dose of Compound (1) and had 1 PK sample after dosing.
# [2] = aqueous solution formulation (Hoffmann 2020); cited from earlier work
# patients with PPD or MDD = assay: Most common TEAEs across clinical trials in PPD or MDD: overall ranges; format: in vivo, human; settings: 30 or 50 mg (N = 583)
# Source text: The majority of patients receiving Compound (1) and experiencing a TEAE reported TEAEs mild and moderate in severity: clinical trial of Example 4 94%, Phase 2 clinical trial conducted by Applicant 100%, previous Phase 3 clinical trial conducted by Applicant 98%, and clinical trial of Example 1 95.0%.
smiles,measurement,setting,value
"C[C@@]1(O)CC[C@H]2[C@H](CC[C@@H]3[C@@H]2CC[C@]2(C)[C@@H](C(=O)Cn4cc(C#N)cn4)CC[C@@H]32)C1 [Compound (1), 1-(2-((3R,5R,8R,9R,10S,13S,14S,17S)-3-hydroxy-3,13-dimethylhexadecahydro-1H-cyclopenta[a]phenanthren-17-yl)-2-oxoethyl)-1H-pyrazole-4-carbonitrile]",Any TEAE,[1]; 60 mg (n = 6),5 (83.3) n (%)
same,Asthenopia (TEAE),[1]; 60 mg (n = 6),0 n (%)
same,Blood bilirubin increased (TEAE),[1]; 60 mg (n = 6),0 n (%)
same,Disturbance in attention (TEAE),[1]; 60 mg (n = 6),0 n (%)
same,Dizziness postural (TEAE),[1]; 60 mg (n = 6),1 (16.7) n (%)
same,Euphoric mood (TEAE),[1]; 60 mg (n = 6),0 n (%)
same,Feeling abnormal (TEAE),[1]; 60 mg (n = 6),0 n (%)
same,Feeling hot (TEAE),[1]; 60 mg (n = 6),0 n (%)
same,Feeling of relaxation (TEAE),[1]; 60 mg (n = 6),0 n (%)
same,Headache (TEAE),[1]; 60 mg (n = 6),1 (16.7) n (%)
same,Hunger (TEAE),[1]; 60 mg (n = 6),0 n (%)
same,Hyperhidrosis (TEAE),[1]; 60 mg (n = 6),0 n (%)
same,Irritability (TEAE),[1]; 60 mg (n = 6),0 n (%)
same,Lacrimation increased (TEAE),[1]; 60 mg (n = 6),0 n (%)
same,Mild TEAE,[1]; 60 mg (n = 6),5 (83.3) n (%)
same,Moderate TEAE,[1]; 60 mg (n = 6),0 n (%)
same,Orthostatic HR response increase (TEAE),[1]; 60 mg (n = 6),1 (16.7) n (%)
same,Paresthesia (TEAE),[1]; 60 mg (n = 6),0 n (%)
same,Somnolence (TEAE),[1]; 60 mg (n = 6),4 (66.7) n (%)
same,Toothache (TEAE),[1]; 60 mg (n = 6),0 n (%)
same,Tremor (TEAE),[1]; 60 mg (n = 6),0 n (%)
same,Vision blurred (TEAE),[1]; 60 mg (n = 6),0 n (%)
same,Yawning (TEAE),[1]; 60 mg (n = 6),0 n (%)
same,Any TEAE,[1]; 80 mg (n = 6),5 (83.3) n (%)
same,Asthenopia (TEAE),[1]; 80 mg (n = 6),1 (16.7) n (%)
same,Blood bilirubin increased (TEAE),[1]; 80 mg (n = 6),0 n (%)
same,Disturbance in attention (TEAE),[1]; 80 mg (n = 6),1 (16.7) n (%)
same,Dizziness postural (TEAE),[1]; 80 mg (n = 6),2 (33.3) n (%)
same,Euphoric mood (TEAE),[1]; 80 mg (n = 6),1 (16.7) n (%)
same,Feeling abnormal (TEAE),[1]; 80 mg (n = 6),0 n (%)
same,Feeling hot (TEAE),[1]; 80 mg (n = 6),0 n (%)
same,Feeling of relaxation (TEAE),[1]; 80 mg (n = 6),2 (33.3) n (%)
same,Headache (TEAE),[1]; 80 mg (n = 6),0 n (%)
same,Hunger (TEAE),[1]; 80 mg (n = 6),0 n (%)
same,Hyperhidrosis (TEAE),[1]; 80 mg (n = 6),0 n (%)
same,Irritability (TEAE),[1]; 80 mg (n = 6),1 (16.7) n (%)
same,Lacrimation increased (TEAE),[1]; 80 mg (n = 6),0 n (%)
same,Mild TEAE,[1]; 80 mg (n = 6),5 (83.3) n (%)
same,Moderate TEAE,[1]; 80 mg (n = 6),0 n (%)
same,Orthostatic HR response increase (TEAE),[1]; 80 mg (n = 6),0 n (%)
same,Paresthesia (TEAE),[1]; 80 mg (n = 6),1 (16.7) n (%)
same,Somnolence (TEAE),[1]; 80 mg (n = 6),5 (83.3) n (%)
same,Toothache (TEAE),[1]; 80 mg (n = 6),0 n (%)
same,Tremor (TEAE),[1]; 80 mg (n = 6),0 n (%)
same,Vision blurred (TEAE),[1]; 80 mg (n = 6),1 (16.7) n (%)
same,Yawning (TEAE),[1]; 80 mg (n = 6),0 n (%)
same,Moderate TEAEs,[1]; 90 mg,one instance of somnolence
same,Any TEAE,[1]; 90 mg (n = 6),6 (100) n (%)
same,Asthenopia (TEAE),[1]; 90 mg (n = 6),0 n (%)
same,Blood bilirubin increased (TEAE),[1]; 90 mg (n = 6),0 n (%)
same,Disturbance in attention (TEAE),[1]; 90 mg (n = 6),0 n (%)
same,Dizziness postural (TEAE),[1]; 90 mg (n = 6),0 n (%)
same,Euphoric mood (TEAE),[1]; 90 mg (n = 6),4 (66.7) n (%)
same,Feeling abnormal (TEAE),[1]; 90 mg (n = 6),1 (16.7) n (%)
same,Feeling hot (TEAE),[1]; 90 mg (n = 6),0 n (%)
same,Feeling of relaxation (TEAE),[1]; 90 mg (n = 6),1 (16.7) n (%)
same,Headache (TEAE),[1]; 90 mg (n = 6),0 n (%)
same,Hunger (TEAE),[1]; 90 mg (n = 6),0 n (%)
same,Hyperhidrosis (TEAE),[1]; 90 mg (n = 6),1 (16.7) n (%)
same,Irritability (TEAE),[1]; 90 mg (n = 6),1 (16.7) n (%)
same,Lacrimation increased (TEAE),[1]; 90 mg (n = 6),0 n (%)
same,Mild TEAE,[1]; 90 mg (n = 6),5 (83.3) n (%)
same,Moderate TEAE,[1]; 90 mg (n = 6),1 (16.7) n (%)
same,Orthostatic HR response increase (TEAE),[1]; 90 mg (n = 6),0 n (%)
same,Paresthesia (TEAE),[1]; 90 mg (n = 6),0 n (%)
same,Somnolence (TEAE),[1]; 90 mg (n = 6),4 (66.7) n (%)
same,Toothache (TEAE),[1]; 90 mg (n = 6),0 n (%)
same,Tremor (TEAE),[1]; 90 mg (n = 6),1 (16.7) n (%)
same,Vision blurred (TEAE),[1]; 90 mg (n = 6),0 n (%)
same,Yawning (TEAE),[1]; 90 mg (n = 6),1 (16.7) n (%)
same,Blood bilirubin increased (TEAE),[1]; All doses (n = 18),0 n
same,Feeling hot (TEAE),[1]; All doses (n = 18),0 n
same,Hunger (TEAE),[1]; All doses (n = 18),0 n
same,Lacrimation increased (TEAE),[1]; All doses (n = 18),0 n
same,Toothache (TEAE),[1]; All doses (n = 18),0 n
same,T½ values reported by a prior study,[2],14 to 19 h
same,"Any TEAE, overall range across trials",patients with PPD or MDD,53.3-60.3%
same,"Diarrhea, overall range across trials",patients with PPD or MDD,0-6.4%
same,"Dizziness, overall range across trials",patients with PPD or MDD,5.7-13.8%
same,"Fatigue, overall range across trials",patients with PPD or MDD,1.1-6.8%
same,"Headache, overall range across trials",patients with PPD or MDD,6.3-17.8%
same,"Nausea, overall range across trials",patients with PPD or MDD,3.6-11.1%
same,"Sedation, overall range across trials",patients with PPD or MDD,4.4-7.5%
same,"Somnolence, overall range across trials",patients with PPD or MDD,6.7-15.4%
same,"URTI, overall range across trials",patients with PPD or MDD,0-7.7%

# — US20240216395A1, “19-NOR C3,3-DISUBSTITUTED C21 -N-PYRAZOLYL STEROID FOR USE IN TREATING MAJOR DEPRESSIVE DISORDER AND […]” (priority 2021, published 2024)
